Measurements published in patent US20230274799A1, “SYSTEMS AND METHODS FOR PATIENT STRATIFICATION AND IDENTIFICATION OF POTENTIAL BIOMARKERS” (Berg LLC, priority 2016, published 2023).

Test: Phase I dose-escalation trial, dose limiting toxicities of Coenzyme Q10 in combination with chemotherapy (Arm 2)
Format: in vivo, human
Source text: The clinical trial is a multicenter, open-label, non-randomized, dose-escalation study to examine the dose limiting toxicities (DLT) of Coenzyme Q10 administered as a 144-hour continuous intravenous (IV) infusion as monotherapy (treatment Arm 1) and in combination with chemotherapy (treatment Arm 2) in patients with solid tumors. A broad range of solid tumors has been evaluated, including prostate, colon, breast, lung and pancreatic tumors, as shown in Tables 1 and 2 below. Coenzyme Q10 was administered in three consecutive 48 hour doses or two consecutive 72 hour doses, depending on the dose level. Three standard weekly chemotherapy regimens of gemcitabine, 5-fluorouracil, or docetaxel were evaluated in combination with Coenzyme Q10. Eligible patients are 18 years of age or older, afflicted with solid tumors, and relapsed/refractory to standard therapy. 85 patients have been enrolled in the trial. The monotherapy arm received Coenzyme Q10 for 6 days in continuous infusion in 28 day cycles, and the combination arms (gemcitabine, 5-fluorouracil, or docetaxel) were primed for 3 weeks with Coenzyme Q10 before initiation of standard chemotherapy, followed by weekly dosing in a 6 week cycle.
The study is a standard 3+3 dose escalation design with the dose escalated in successive cohorts of 3 to 6 patients each. […]

In the case of `COC1=C(OC)C(=O)C(C/C=C(\C)CC/C=C(\C)CC/C=C(\C)CC/C=C(\C)CC/C=C(\C)CC/C=C(\C)CC/C=C(\C)CC/C=C(\C)CC/C=C(\C)CCC=C(C)C)=C(C)C1=O` [Coenzyme Q10], the “Dose Limiting Toxicity” value (DL4 - 110 mg/kg with Gemcitabine 1,000 mg/m^2 (6 enrolled), two consecutive 72 hour infusions, cell wraps r34-r38: None to Date- need 3 more evaluable patients to determine MTD) is reported as “None to Date-” and the “Dose Limiting Toxicity” value (in vivo) is reported as “None”.
